Experimental data taken from the NIST ThermoML archive (doi:10.1021/je400101s).

Experiment: mn = molality of the nth substance listed, in mol/kg
Conditions: 101 kPa, Liquid; for electrical conductivity: METLER TOLEDO SevenEasyTM conductivity meter

CCCC[P+](CC)(CCCC)CCCC.[Br-] [ethyltributylphosphonium bromide] + O
Conditions | electrical conductivity, 298.15 K [S/m] | electrical conductivity, 303.15 K [S/m] | electrical conductivity, 308.15 K [S/m] | mass density, 298.15 K [kg/m3] | mass density, 303.15 K [kg/m3] | mass density, 308.15 K [kg/m3] | viscosity, 298.15 K [mPa·s] | viscosity, 303.15 K [mPa·s] | viscosity, 308.15 K [mPa·s]
m1 = 0.5002 | 1.77 | 1.83 | 1.89 | 1010.54 | 1008.66 | 1006.6 | 1.404 | 1.225 | 1.084
m1 = 0.7497 | 2.04 | 2.14 | 2.21 | 1016.07 | 1013.98 | 1011.69 | 1.801 | 1.589 | 1.426
m1 = 1 | 2.21 | 2.33 | 2.41 | 1021.34 | 1018.99 | 1016.49 | 2.006 | 1.742 | 1.524
m1 = 1.995 | 2.35 | 2.49 | 2.63 | 1038.07 | 1034.94 | 1031.74 | 3.177 | 2.633 | 2.19
m1 = 3.001 | 2.2 | 2.36 | 2.55 | 1048.55 | 1045.08 | 1041.59 | 4.806 | 3.978 | 3.331
m1 = 4 | 2.03 | 2.21 | 2.42 | 1055.26 | 1051.66 | 1048.01 | 6.391 | 5.291 | 4.447
m1 = 4.997 | 1.87 | 2.05 | 2.25 | 1060.4 | 1056.71 | 1053 | 7.976 | 6.54 | 5.441
m1 = 5.998 | 1.72 | 1.9 | 2.11 | 1064.15 | 1060.43 | 1056.66 | 9.681 | 7.852 | 6.459
m1 = 6.501 | 1.65 | 1.85 | 2.06 | 1065.49 | 1062.17 | 1058.22 | 10.62 | 8.579 | 7.005
m1 = 6.984 | 1.58 | 1.78 | 1.98 | 1066.91 | 1063.18 | 1059.41 | 11.58 | 9.33 | 7.561
m1 = 8.001 | – | – | – | 1069.18 | 1065.46 | 1061.69 | – | – | –
m1 = 8.994 | – | – | – | 1070.97 | 1067.25 | 1063.49 | – | – | –

CCCC[P+](CCCC)(CCCC)CCCC.[Br-] [tetrabutylphosphonium bromide] + O
Conditions | electrical conductivity, 298.15 K [S/m] | electrical conductivity, 303.15 K [S/m] | electrical conductivity, 308.15 K [S/m] | mass density, 298.15 K [kg/m3] | mass density, 303.15 K [kg/m3] | mass density, 308.15 K [kg/m3] | viscosity, 298.15 K [mPa·s] | viscosity, 303.15 K [mPa·s] | viscosity, 308.15 K [mPa·s]
m1 = 0.4996 | 1.61 | 1.65 | 1.72 | 1008.5 | 1006.58 | 1004.44 | 1.483 | 1.282 | 1.142
m1 = 0.7513 | 1.81 | 1.89 | 1.99 | 1013.67 | 1011.4 | 1008.98 | 1.871 | 1.677 | 1.469
m1 = 0.9998 | 1.93 | 2.03 | 2.15 | 1017.95 | 1015.41 | 1012.75 | 2.246 | 1.915 | 1.66
m1 = 1.999 | 1.97 | 2.08 | 2.251 | 1030.09 | 1026.84 | 1023.52 | 3.875 | 3.1 | 2.61
m1 = 2.999 | 1.84 | 1.95 | 2.13 | 1037.03 | 1033.51 | 1029.96 | 5.641 | 4.589 | 3.839
m1 = 4.004 | 1.69 | 1.81 | 2 | 1041.4 | 1037.76 | 1034.07 | 7.374 | 6.059 | 5.037
m1 = 4.994 | 1.54 | 1.66 | 1.85 | 1044.28 | 1040.58 | 1036.87 | 9.03 | 7.403 | 6.085
m1 = 6.002 | 1.43 | 1.54 | 1.73 | 1046.66 | 1042.92 | 1039.15 | 10.65 | 8.71 | 7.101
m1 = 6.503 | 1.4 | 1.51 | 1.68 | 1047.29 | 1043.96 | 1039.91 | 11.46 | 9.333 | 7.618
m1 = 7.006 | 1.33 | 1.44 | 1.61 | 1048.18 | 1044.43 | 1040.68 | 12.29 | 9.946 | 8.17
m1 = 8 | – | – | – | 1049.41 | 1045.66 | 1041.87 | – | – | –
m1 = 8.996 | – | – | – | 1050.43 | 1046.7 | 1042.93 | – | – | –
